The values below are quoted from earlier work in article PMC11511053, “Characterization of Kunitz-Domain Anticoagulation Peptides Derived from Acinetobacter baumannii Exotoxin Protein F6W77” (Toxins, 2024).

This data set relates to Target. The settings on record: Table 1, column Ref; ref PN2KPI [25], RVV inhibitor II [40], Simukunin [43], EnKT1 [48], SjKI-1 [22], Schixator [50], SmKI-1 [49], joannsin [44], KPI [45], BF9 [29], Fasxiator [42], Amblyomin-X [27], TAP [46], Bicolin [47]; cited from earlier work. From the text:
Table 1 Natural Kunitz-type anticoagulant peptides from different organisms. | column: Target

As for “TAP: Kunitz-type anticoagulant peptide from tick (YNRLCIKPRDWIDECDSNEGGERAYFRNGKGGCDSFWICPEDHTGADYYSSYRDCFNACI; UniProt P17726 1-60, looked up)”, the Target result is listed as “FXa”.
